The source of these data is patent US10907212B2, “Inhibitors of cell adhesion” (Regents of the University of Minnesota, priority 2016, dated 2021).

“Also recorded” adds a separate entry of the source. Where no end group is shown, it is not given here.

The test system of experiment [1] is NIH:OVCAR5 control shRNA and NIH:OVCAR5-VB3 cells. Briefly: Spheroid formation of cells pretreated with mitomycin C. In kind it is cell-based, human. As to conditions: data not shown. As to the method:
Spheroids were formed from the NIH:OVCAR5 cell lines described above using the liquid overlay method. One milliliter of a single cell suspension was seeded at a concentration of 50,000 cells/ml in OptiMEM® media, into 24-well tissue culture plates coated with 0.5% Seakem agarose (in complete RPMI-1640). Plates were incubated at 37° C. in a humidified incubator with 5% CO2. At various time points up to 5 days, the plates were removed from the incubator and the spheroids were photographed with a Nikon CoolPix digital camera mounted on an Olympus CK2 inverted microscope with a 4× objective. The size of the spheroids was determined using the measure tool in Adobe Photoshop. The largest spheroids were quantified (20-90 spheroids/well), in a minimum of 8 wells, for a total of >300 spheroids per cell type.
Ovarian cancer is unique in that tumor cells commonly grow within the peritoneal cavity as free floating multi-cellular aggregates (spheroids) in the ascites fluid. […] Spheroids formed by both cell types appeared tightly aggregated, in contrast to previous results with the cell adhesion molecule claudin-4, where cells depleted of claudin-4 formed spheroids more slowly and the spheroids formed had increased paracellular permeability. […]

Experiment [2] concerns nectin 4 protein on NIH:OVCAR-5 cells. Briefly: Effect of peptides on anti-Nectin-4 antibody binding to cells as determined by flow cytometry. In kind it is cell-based, human. As to conditions: for IgG MFI: IgG control primary antibody; for nectin-4 antibody binding compared to untreated control cells (in words): flow cytometry; for Flow binding: summary table, Nectin-4 antibody binding relative to control = 100. The gist of the method: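 NIH:OVCAR-5 cells, which natively express nectin 4, were incubated for 30 min with soluble peptide at 150 μg/mL in DMSO. Cells were then stained with mouse anti-nectin 4 or IgG control, followed by biotinylated anti-mouse and streptavidin-APC. Antibody binding relative to untreated control was measured by flow cytometry.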
Background: In flow cytometry, cells or beads pass a laser one at a time.

Experiment [3] deals with adhesion of NIH:OVCAR5-N4-over cells to recombinant human Nectin-1 extracellular domain. Briefly: Inhibition of NIH:OVCAR5-N4-over cell adhesion to recombinant Nectin-1 by synthetic nectin peptides. In kind it is cell-based. The settings on record: 150 μg/ml peptide; 0.5 μg/well Nectin-1; 30 min adhesion; listed as N1-P20. As to the method:
Black, clear-bottom 96-well microtiter plates (Corning, Imported Costar, Corning, N.Y.) were coated with recombinant human Nectin-1 extracellular domain (R&D Systems), recombinant human Nectin-4 extracellular domain (R&D Systems), mouse laminin (Invitrogen™), or bovine serum albumin (BSA; Probumin Diagnostic Grade, MilliPore) diluted in PBS. Covered plates were incubated overnight at 37° C. in a humidified incubator. After washing with PBS plus Ca^2+/Mg^2+ containing 2 mg/ml ovalbumin (Sigma-Aldrich), the plates were blocked for 1 hat 37° C. with 1% BSA in PBS without Ca^2+/Mg^2+. Confluent monolayers of NIH:OVCAR5 cells or NIH:OVCAR5-N4-over cells were detached with Accutase, and then filtered through a 40 μm cell strainer (BD Biosciences, San Jose, Calif.) to remove cell aggregates. The single cells were stained with CellTracker Green CMFDA (5-chloromethylfluorescein diacetate; Invitrogen™) according to the manufacturer's protocol. […] Plates were vigorously washed four times and read in a BioTek Synergy fluorescent microplate reader (BioTek, Winooski, V A). […]
Microtiter plates coated with recombinant Nectin-1 as described above were pre-incubated for 30 min at room temperature with 150 μg/ml Nectin-4 peptides in PBS in triplicate. CMFDA-stained NIH:OVCAR5-N4-over cells were then added to the wells and cell adhesion was quantified as described above. […]

The test system of experiment [4] is ovarian cancer cell aggregation and spheroid formation. Briefly: Spheroid assay for peptides (visual scale +1 to +5). In kind it is cell-based, human. The settings on record: visual scale of +1 to +5; for Spheroid-24: 24 hrs, Control = 2; for Spheroid-48: 48 hrs, Control = 4. The gist of the method: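 OVCAR5 cells seeded at 50,000 cells/ml in OptiMEM on 0.5% agarose-coated wells (liquid overlay), incubated at 37° C., 5% CO2 up to 5 days. Spheroids photographed under 4× objective and sized; peptide effects scored on a visual +1 to +5 scale at 24 and 48 hrs.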

The mark [5] stands for this setting: Run Two, 150 μg/mL peptide, 30 minutes, Control 2 = 49,491.
The mark [6] stands for this setting: Run Two, antibody binding relative to Control 2 = 100.00.
Where [7] appears, read: Run One, 150 μg/mL peptide, 30 minutes, Control 1 = 15,015.
[8] abbreviates: Run One, 150 μg/mL peptide, 30 minutes, Control 1 = 1,670.
[9] abbreviates: Run One, antibody binding relative to Control 1 = 100.00.

With `CO[C@@]12[C@H](COC(N)=O)C3=C(C(=O)C(C)=C(N)C3=O)N1C[C@@H]1N[C@@H]12` [mitomycin C], the “aggregation of cells in presence of mitomycin C” value in experiment [1] (NIH:OVCAR5-VB3 cells with Nectin-4 knocked down by shRNA) is given as “No difference was observed”. For the same compound, the “spheroid size versus untreated control cells” value in experiment [1] (shRNA control NIH:OVCAR5 cells, after 24 h) was “smaller than the untreated control cells”.
For “NWYLQRMDVKLTCK-NH2 (listed as Homo sapiens) [Peptide 49]”, in experiment [2] (Run Four, Control 4 = 9.387504873), the “N4 MFI/IgG MFI” value was 10.36. Further, the “IgG MFI” value in experiment [2] (Run Four, Control 4 = 1,026) is given as 29486. Further, the “nectin-4 antibody binding, percent of control” value in experiment [2] (Run Four, antibody binding relative to Control 4 = 100) was 3206. The “nectin-4 antibody binding compared to untreated control cells (in words)” value in experiment [2] (150 μg/mL peptide) was “erroneous/outlier”. Moreover, the “effect on cell adhesion to Nectin-1 (in words)” value in experiment [3] is listed as “to a greater extent than the mAb against Nectin-1; also recorded: complete inhibition”.
In turn, “TGNGIYINGRGHLV-NH2 (listed as Homo sapiens) [Peptide 29]” had a Spheroid-24 in experiment [4] of 3. Moreover, the “N4 MFI” value in experiment [2] (setting [5]) was 18,643. The “N4 MFI/IgG MFI” value in experiment [2] (Run Two, Control 2 = 9.46) came to 6.04. In addition, the “IgG MFI” value in experiment [2] (Run Two, Control 2 = 5,233) is 3,087. For the same compound, in experiment [2] (setting [6]), the “nectin-4 antibody binding, percent of control” value stood at 35.15. Also, the “nectin-4 antibody binding compared to untreated control cells (in words)” value in experiment [2] (150 μg/mL peptide) is listed as “reduction in nectin-4 antibody binding”. In experiment [2], this compound yielded a Flow binding of 35%.
In experiment [4], “TTEHSGIYVCHVSN-NH2 (listed as Homo sapiens) [Peptide 24]” returned a Spheroid-48 of 3. In addition, the “N4 MFI” value in experiment [2] (setting [5]) is given as 33,353. Also, the “N4 MFI/IgG MFI” value in experiment [2] (Run Two, Control 2 = 9.46) came to 8.76. Further, the “IgG MFI” value in experiment [2] (Run Two, Control 2 = 5,233) is 3,808. The “nectin-4 antibody binding, percent of control” value in experiment [2] (setting [6]) was 66.76.
In the case of “VDVLDPQEDSGKQV-NH2 (listed as Homo sapiens) [Peptide 26]”, in experiment [4], the Spheroid-24 is 1 and the Spheroid-48 was 2. In addition, the “N4 MFI” value in experiment [2] (setting [5]) is recorded as 35,299. For the same compound, in experiment [2] (Run Two, Control 2 = 9.46), the “N4 MFI/IgG MFI” value was 8.92. In addition, the “IgG MFI” value in experiment [2] (Run Two, Control 2 = 5,233) is on record as 3,956. In addition, the “nectin-4 antibody binding, percent of control” value in experiment [2] (setting [6]) amounted to 70.82.
Consider “VSPAYEGRVEQPPP-NH2 (listed as Homo sapiens) [Peptide 6]”, for which, in experiment [4], the Spheroid-24 is 1 and the Spheroid-48 was 2. Moreover, the “N4 MFI” value in experiment [2] (setting [7]) is 12,682. Further, the “IgG MFI” value in experiment [2] (setting [8]) is recorded as 1,622. Besides, in experiment [2] (Run One, Control 1 = 8.99), the “N4 MFI/IgG MFI” value is given as 7.82. Besides, the “nectin-4 antibody binding, percent of control” value in experiment [2] (setting [9]) worked out at 82.88.
In experiment [4], “VVLGQDAKLPCFYR-NH2 (listed as Homo sapiens) [Peptide 2]” yielded a Spheroid-48 of 3. Further, the “N4 MFI” value in experiment [2] (setting [7]) is 11,895. For the same compound, in experiment [2] (setting [8]), the “IgG MFI” value is reported as 2,458. In experiment [2] (Run One, Control 1 = 8.99), the “N4 MFI/IgG MFI” value is given as 4.84. Moreover, the “nectin-4 antibody binding, percent of control” value in experiment [2] (setting [9]) is listed as 70.72.
As for “WTRLDGPLPSGVRV-NH2 (listed as Homo sapiens) [Peptide 22]”, in experiment [4], the Spheroid-24 was 1 and the Spheroid-48 is reported as 3. In experiment [2] (setting [5]), the “N4 MFI” value is recorded as 70,336. Further, the “N4 MFI/IgG MFI” value in experiment [2] (Run Two, Control 2 = 9.46) came to 9.82. Besides, the “IgG MFI” value in experiment [2] (Run Two, Control 2 = 5,233) was 7,160. For the same compound, the “nectin-4 antibody binding, percent of control” value in experiment [2] (setting [6]) came out at 142.74. Also, the “nectin-4 antibody binding compared to untreated control cells (in words)” value in experiment [2] (150 μg/mL peptide) was “increased nectin-4 antibody binding”. The compound also showed a Flow binding in experiment [2] of 143%.
Regarding “WTRLDGPLPSGVRVDGDT-NH2 (listed as Homo sapiens) [Peptide 28]”, the Spheroid-48 in experiment [4] is 2. For the same compound, the “N4 MFI” value in experiment [2] (setting [5]) is listed as 41,302. Further, the “N4 MFI/IgG MFI” value in experiment [2] (Run Two, Control 2 = 9.46) came out at 10.83. The “IgG MFI” value in experiment [2] (Run Two, Control 2 = 5,233) is on record as 3,815. The “nectin-4 antibody binding, percent of control” value in experiment [2] (setting [6]) was 84.70.
With “WTTLNGSLPKGVEAQNRT-NH2 (listed as Homo sapiens) [Peptide 57]”, in experiment [4], the Spheroid-48 came to 3. In addition, in experiment [2] (Run Five, 150 μg/mL peptide, 30 minutes, Control 5 = 17,768.90), the “N4 MFI” value was 14,705.92. Further, in experiment [2] (Run Five, Control 5 = 2.142155332), the “N4 MFI/IgG MFI” value stood at 1.874. Moreover, the “IgG MFI” value in experiment [2] (Run Five, Control 5 = 8,294.87) is 7,848.89. Besides, in experiment [2] (Run Five, antibody binding relative to Control 5 = 100), the “nectin-4 antibody binding, percent of control” value is on record as 72.38. The “nectin-4 antibody binding compared to untreated control cells (in words)” value in experiment [2] (150 μg/mL peptide) is “reduction in nectin-4 antibody binding”.
For “YRGDSGEQVGQVAW-NH2 (listed as Homo sapiens) [Peptide 3]”, the Spheroid-48 in experiment [4] turned out to be 2. The “N4 MFI” value in experiment [2] (setting [7]) is reported as 6,987. Further, the “IgG MFI” value in experiment [2] (setting [8]) was 2,044. Moreover, in experiment [2] (Run One, Control 1 = 8.99), the “N4 MFI/IgG MFI” value is 3.42. Also, in experiment [2] (setting [9]), the “nectin-4 antibody binding, percent of control” value was 37.04. In addition, the “nectin-4 antibody binding compared to untreated control cells (in words)” value in experiment [2] (150 μg/mL peptide) is “reduction in nectin-4 antibody binding”. Besides, the Flow binding in experiment [2] is on record as 37%.
